Results: patent US20050158277A1 (priority 2001, published 2005)

Test system: S. typhimurium
Type: cell-based
Settings: up to 50 mM, 30 min exposure
Procedure: FIGS. 17 (a-c) Curve of toxicity of benzyl alcohol. Effect of 30 min exposure to increasing concentration (5 to 80 mM) benzyl alcohol (BA) on the growth of S. typhimurium.

`OCc1ccccc1` [BA, benzyl alcohol] was tested, and the “toxic effect on the growth of Salmonella” value was “no toxic effect”.
